According to patent publication US20220211810A1 (priority 2019, published 2022):
pKd: −log10 of the molar value.

Columns and labels:
[1] = target: T1, nomacopan (EV576, rVA576, OmCI protein, Coversin), Ornithodoros moubata, amino acids 19 to 168 of SEQ ID NO: 2 (SEQ ID NO: 4) (Ornithodoros moubata, UniProt Q5YD59); assay: LTB4 binding by fluorescence titration (protein Tyr/Trp fluorescence quenching)
T1 sequence (Q5YD59 19-168): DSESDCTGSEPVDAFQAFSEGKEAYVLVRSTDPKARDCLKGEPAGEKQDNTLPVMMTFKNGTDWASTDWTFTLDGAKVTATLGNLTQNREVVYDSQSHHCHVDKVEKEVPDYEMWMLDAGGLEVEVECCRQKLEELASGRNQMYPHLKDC
Description: This may be carried out as follows:
Purified 100 nM solutions of nomacopan, in 2 mL PBS were applied in a quartz cuvette (10 mm path length; Hellma, Mülheim, Germany) equipped with a magnetic stirrer. Temperature was adjusted to 20° C. and, after equilibrium was reached, protein Tyr/Trp fluorescence was excited at 280 nm (slit width: 15 nm). The fluorescence emission was measured at 340 nm (slit width: 16 nm) corresponding to the emission maximum. […] For calculation of the KD value, data was normalized to an initial fluorescence intensity of 100%, the inner filter effect was corrected using a titration of 3 μM N-acetyl-tryptophanamide solution and data was plotted against the corresponding ligand concentration. Then, non-linear least squares regression based on the law of mass action for bimolecular complex formation was used to fit the data with Origin software version 8.5 (OriginLab, Northampton, Mass., USA) using a published formula (Breustedt et al., 2006).

[2] = test system: experimental autoimmune uveitis (EAU) in C57/B16 mice; assay: Experimental autoimmune uveitis (EAU), topical treatment, clinical score by fundoscopy; type: in vivo, mouse; conditions: twice daily 2-5 μl for 7 days, Maxidex, day 21 post immunization, n=12 eyes

Structure (SMILES)	pKd [1]	clinical score compared with L-nomacopan treated mice [2]
CCCCC/C=C\C[C@@H](O)/C=C/C=C/C=C\[C@@H](O)CCCC(=O)O [LTB4, Leukotriene B4]	9.52 to 9.70	–
C[C@@H]1C[C@H]2[C@@H]3CCC4=CC(=O)C=C[C@]4(C)[C@@]3(F)[C@@H](O)C[C@]2(C)[C@@]1(O)C(=O)CO [dexamethasone]	–	in line with
